From ChEMBL document CHEMBL4507292 (2021)

How the values were obtained:
[1] = molecular target: Glutamate receptor 2 (Homo sapiens) (UniProt P42262); details: Rattus norvegicus; Compound concentration 10.0 uM
[2] = molecular target: Epidermal growth factor receptor (Homo sapiens, UniProt P00533); assay: Protein Tyrosine Kinase, EGF Receptor Eurofins-Panlabs enzyme assay; set-up: substrate with concentration 10 µg/mL Poly(Glu:Tyr), incubation time 60 min, incubation temperature 25 °C
[3] = molecular target: Somatostatin receptor type 2 (Homo sapiens) (UniProt P30874); assay: Somatostatin sst2 Eurofins-Panlabs radioligand binding assay; set-up: ligand concentration 0.1 nM; details: Compound concentration 10.0 uM
Somatostatin receptor type 2 (Homo sapiens), sequence (P30874 whole entry): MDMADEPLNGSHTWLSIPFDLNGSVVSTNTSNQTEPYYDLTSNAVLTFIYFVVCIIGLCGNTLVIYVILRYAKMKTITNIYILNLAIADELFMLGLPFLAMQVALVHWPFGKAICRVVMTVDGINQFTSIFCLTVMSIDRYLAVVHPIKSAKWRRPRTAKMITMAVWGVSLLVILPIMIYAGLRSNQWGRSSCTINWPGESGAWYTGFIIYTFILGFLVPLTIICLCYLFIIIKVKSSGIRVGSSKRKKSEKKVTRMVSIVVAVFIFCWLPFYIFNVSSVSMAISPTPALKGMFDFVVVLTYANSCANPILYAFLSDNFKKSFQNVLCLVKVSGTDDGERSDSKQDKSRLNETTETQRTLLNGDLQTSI

[4] = molecular target: Protein kinase C iota type (Homo sapiens) (UniProt P41743); details: Compound concentration 1000.0 nM
[5] = molecular target: SNF-related serine/threonine-protein kinase (Homo sapiens) (UniProt Q9NRH2); details: Compound concentration 1000.0 nM
[6] = molecular target: Prostaglandin G/H synthase 1 (Homo sapiens) (UniProt P23219); assay: Inhibition of Cyclooxygenase COX-1 at compound concentration of 10.0 uM in the Eurofins-Panlabs enzyme assay (Eurofins_assay_116020); details: Compound concentration 10.0 uM
Prostaglandin G/H synthase 1 (Homo sapiens), sequence (P23219 whole entry): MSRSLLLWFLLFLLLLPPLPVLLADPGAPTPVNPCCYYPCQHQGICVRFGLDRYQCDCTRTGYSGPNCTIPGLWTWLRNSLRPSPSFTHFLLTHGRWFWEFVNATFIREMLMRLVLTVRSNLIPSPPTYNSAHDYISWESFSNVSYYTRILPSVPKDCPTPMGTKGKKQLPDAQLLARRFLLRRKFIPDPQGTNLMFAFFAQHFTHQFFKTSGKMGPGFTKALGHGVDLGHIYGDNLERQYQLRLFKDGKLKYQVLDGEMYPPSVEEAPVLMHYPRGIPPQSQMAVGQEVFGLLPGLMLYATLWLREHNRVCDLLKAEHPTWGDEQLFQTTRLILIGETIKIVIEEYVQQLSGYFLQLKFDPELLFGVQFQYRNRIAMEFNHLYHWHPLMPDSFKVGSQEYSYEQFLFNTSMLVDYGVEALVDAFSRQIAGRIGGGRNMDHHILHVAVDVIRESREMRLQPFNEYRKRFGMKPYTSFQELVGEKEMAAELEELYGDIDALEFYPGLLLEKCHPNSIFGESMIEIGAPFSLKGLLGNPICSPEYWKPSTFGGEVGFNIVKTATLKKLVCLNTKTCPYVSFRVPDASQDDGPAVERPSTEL

[7] = molecular target: Type-2 angiotensin II receptor (Homo sapiens) (UniProt P50052); assay: Angiotensin AT2 Eurofins-Panlabs radioligand binding assay; assay type: protein assay; details: Compound concentration 10.0 uM
[8] = molecular target: Sodium-dependent dopamine transporter (Homo sapiens, UniProt Q01959); assay: Inhibition of Transporter, Dopamine (DAT) at compound concentration of 10.0 uM in the Eurofins-Panlabs radioligand binding assay (Eurofins_assay_220320); set-up: ligand concentration 0.15 nM, non-specific ligand with concentration 10 uM Nomifensine, incubation time 3 h, incubation temperature 4 C
Sodium-dependent dopamine transporter, sequence (Q01959 whole entry): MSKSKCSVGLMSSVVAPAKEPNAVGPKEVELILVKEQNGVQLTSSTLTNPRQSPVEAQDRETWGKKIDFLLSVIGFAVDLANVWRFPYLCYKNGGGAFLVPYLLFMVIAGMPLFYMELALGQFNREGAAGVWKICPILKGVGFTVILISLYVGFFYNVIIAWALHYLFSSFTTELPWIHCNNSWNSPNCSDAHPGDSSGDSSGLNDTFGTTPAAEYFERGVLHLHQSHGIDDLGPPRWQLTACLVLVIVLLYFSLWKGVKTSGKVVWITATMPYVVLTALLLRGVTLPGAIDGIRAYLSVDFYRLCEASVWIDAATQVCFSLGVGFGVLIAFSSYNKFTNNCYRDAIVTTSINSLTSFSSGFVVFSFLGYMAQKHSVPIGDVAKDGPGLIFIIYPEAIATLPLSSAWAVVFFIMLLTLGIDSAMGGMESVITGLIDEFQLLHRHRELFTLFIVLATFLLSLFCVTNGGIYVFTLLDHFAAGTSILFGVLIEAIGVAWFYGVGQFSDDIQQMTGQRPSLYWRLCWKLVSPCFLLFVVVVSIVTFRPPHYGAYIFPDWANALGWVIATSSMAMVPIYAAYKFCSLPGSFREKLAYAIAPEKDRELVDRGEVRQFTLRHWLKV

[9] = molecular target: Macrophage metalloelastase (Homo sapiens) (UniProt P39900); assay: Peptidase, Matrix Metalloproteinase-12 (MMP-12) Eurofins-Panlabs enzyme assay; details: Compound concentration 10.0 uM
[10] = molecular target: Histamine H1 receptor (Homo sapiens) (UniProt P35367); details: Compound concentration 10.0 uM
Histamine H1 receptor (Homo sapiens), sequence (P35367 whole entry): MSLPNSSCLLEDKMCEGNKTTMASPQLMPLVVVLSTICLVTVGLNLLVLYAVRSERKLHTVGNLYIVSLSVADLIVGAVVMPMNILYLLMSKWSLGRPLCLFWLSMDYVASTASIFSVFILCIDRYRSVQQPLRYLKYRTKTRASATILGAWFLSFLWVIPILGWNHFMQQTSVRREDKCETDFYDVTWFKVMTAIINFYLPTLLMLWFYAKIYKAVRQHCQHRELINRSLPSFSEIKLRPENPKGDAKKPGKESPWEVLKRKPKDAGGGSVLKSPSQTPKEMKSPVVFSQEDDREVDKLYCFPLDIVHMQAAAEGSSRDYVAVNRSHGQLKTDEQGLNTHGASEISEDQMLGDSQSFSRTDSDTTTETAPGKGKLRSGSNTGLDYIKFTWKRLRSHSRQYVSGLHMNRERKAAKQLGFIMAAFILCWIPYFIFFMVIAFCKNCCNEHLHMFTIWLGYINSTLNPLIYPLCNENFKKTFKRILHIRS

[11] = (§1) Protein Serine/Threonine Kinase, PKA, Non-Selective Eurofins-Panlabs enzyme assay; assay type: protein-complex assay, Bos taurus; set-up: substrate with concentration 370 µg/mL Histone Type III-S, incubation time 15 min, incubation temperature 25 °C
Bos taurus [12] = species on record: Bos taurus; assay: as §1; assay type: protein-complex assay; set-up: substrate with concentration 370 µg/mL Histone Type III-S, incubation time 15 min, incubation temperature 25 °C
[13] = molecular target: Neutrophil elastase (Homo sapiens) (UniProt P08246); assay: Peptidase, ELA2 (Neutrophil Elastase 2) Eurofins-Panlabs enzyme assay; details: Compound concentration 30.0 uM
Homo sapiens = species on record: Homo sapiens; assay: Inhibition of Nicotinic Acetylcholine at compound concentration of 10.0 uM in the Eurofins-Panlabs radioligand binding assay (Eurofins_assay_258590); assay type: protein-complex assay; details: Compound concentration 10.0 uM
[14] = molecular target: Endothelin receptor type B (Homo sapiens) (UniProt P24530); details: Compound concentration 10.0 uM
Phosphodiesterase PDE1 = Phosphodiesterase PDE1 (Bos taurus, UniProt Q01061+P14100+A0A3Q1MCV4); assay: (§2) Phosphodiesterase PDE1 Eurofins-Panlabs enzyme assay; assay type: protein assay; set-up: substrate with concentration [3H] cAMP + cAMP, incubation time 20 min, incubation temperature 25 °C
[15] = molecular target: Phosphodiesterase PDE1 (Bos taurus) (UniProt Q01061+P14100+A0A3Q1MCV4); assay: as §2; assay type: protein assay; set-up: substrate with concentration [3H] cAMP + cAMP, incubation time 20 min, incubation temperature 25 °C
[16] = molecular target: Oxytocin receptor (Homo sapiens) (UniProt P30559); assay: Oxytocin Eurofins-Panlabs radioligand binding assay; details: Compound concentration 10.0 uM
Rattus norvegicus [17] = species on record: Rattus norvegicus; assay: Adrenergic α2, Non-selective Eurofins-Panlabs radioligand binding assay; assay type: protein assay; details: Compound concentration 10.0 uM
[18] = molecular target: Kappa-type opioid receptor (Homo sapiens, UniProt P41145)
Kappa-type opioid receptor, sequence (P41145 whole entry): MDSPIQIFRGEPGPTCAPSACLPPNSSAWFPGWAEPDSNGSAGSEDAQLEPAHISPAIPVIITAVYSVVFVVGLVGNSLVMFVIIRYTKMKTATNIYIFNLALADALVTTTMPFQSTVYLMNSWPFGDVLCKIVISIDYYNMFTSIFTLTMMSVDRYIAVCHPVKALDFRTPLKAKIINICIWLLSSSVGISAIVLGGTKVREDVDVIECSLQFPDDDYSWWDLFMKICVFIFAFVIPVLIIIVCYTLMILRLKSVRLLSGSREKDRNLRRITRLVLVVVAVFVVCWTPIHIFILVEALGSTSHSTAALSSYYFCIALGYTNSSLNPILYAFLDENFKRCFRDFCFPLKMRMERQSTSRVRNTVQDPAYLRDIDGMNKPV

Rattus norvegicus [19] = species on record: Rattus norvegicus; assay: Adrenergic α1, Non-selective Eurofins-Panlabs radioligand binding assay; assay type: protein assay; details: Compound concentration 10.0 uM
[20] = molecular target: Gamma-aminobutyric acid type B receptor subunit 1 (Homo sapiens) (UniProt Q9UBS5); details: Rattus norvegicus; Compound concentration 10.0 uM
Gamma-aminobutyric acid type B receptor subunit 1 (Homo sapiens), sequence (Q9UBS5 whole entry): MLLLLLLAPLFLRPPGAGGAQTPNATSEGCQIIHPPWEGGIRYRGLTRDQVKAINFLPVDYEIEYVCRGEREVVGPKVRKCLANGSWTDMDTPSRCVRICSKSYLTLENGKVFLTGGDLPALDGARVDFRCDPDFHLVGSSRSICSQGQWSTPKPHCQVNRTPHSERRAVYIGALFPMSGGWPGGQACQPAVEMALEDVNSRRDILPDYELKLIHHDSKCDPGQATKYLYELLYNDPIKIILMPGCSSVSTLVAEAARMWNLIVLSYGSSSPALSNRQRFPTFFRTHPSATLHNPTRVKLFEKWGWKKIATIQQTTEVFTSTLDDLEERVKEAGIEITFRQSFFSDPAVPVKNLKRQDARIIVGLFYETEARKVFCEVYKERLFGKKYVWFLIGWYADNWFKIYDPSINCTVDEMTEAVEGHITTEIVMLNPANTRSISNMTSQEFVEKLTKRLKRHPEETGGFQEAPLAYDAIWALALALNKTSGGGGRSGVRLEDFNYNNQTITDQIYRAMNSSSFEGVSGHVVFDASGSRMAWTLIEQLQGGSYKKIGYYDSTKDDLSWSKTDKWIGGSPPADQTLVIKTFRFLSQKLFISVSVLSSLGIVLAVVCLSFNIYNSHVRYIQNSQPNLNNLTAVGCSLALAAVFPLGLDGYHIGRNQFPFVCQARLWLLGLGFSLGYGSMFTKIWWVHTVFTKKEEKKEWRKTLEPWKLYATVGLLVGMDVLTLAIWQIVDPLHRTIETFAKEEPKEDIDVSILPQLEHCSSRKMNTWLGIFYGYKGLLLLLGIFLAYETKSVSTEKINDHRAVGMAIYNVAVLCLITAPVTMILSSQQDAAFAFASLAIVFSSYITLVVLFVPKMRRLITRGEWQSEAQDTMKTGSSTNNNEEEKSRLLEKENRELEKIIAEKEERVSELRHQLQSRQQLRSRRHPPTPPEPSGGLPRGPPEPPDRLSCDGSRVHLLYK

[21] = molecular target: Galanin receptor type 2 (Homo sapiens) (UniProt O43603); assay: Galanin GAL2 Eurofins-Panlabs radioligand binding assay; set-up: ligand concentration 0.02 nM; details: Compound concentration 10.0 uM
[22] = molecular target: Nociceptin receptor (Homo sapiens) (UniProt P41146); assay: Orphanin ORL1 Eurofins-Panlabs radioligand binding assay; details: Compound concentration 10.0 uM
Caspase-8 (Homo sapiens) = Caspase-8 (Homo sapiens) (UniProt Q14790); assay: Peptidase, CASP8 (Caspase 8) Eurofins-Panlabs enzyme assay; details: concentration not given here
Caspase-8 (Homo sapiens), sequence (Q14790 217-374 limits assumed): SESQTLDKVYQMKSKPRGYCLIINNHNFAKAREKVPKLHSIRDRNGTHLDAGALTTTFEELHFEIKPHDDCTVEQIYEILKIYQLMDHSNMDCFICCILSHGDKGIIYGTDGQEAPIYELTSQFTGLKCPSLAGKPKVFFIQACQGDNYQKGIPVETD
Caspase-8 (Homo sapiens), sequence (Q14790 385-479 limits assumed): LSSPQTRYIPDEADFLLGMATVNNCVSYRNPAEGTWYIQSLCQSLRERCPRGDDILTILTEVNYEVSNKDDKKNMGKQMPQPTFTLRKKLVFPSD

[23] = molecular target: Beta-1 adrenergic receptor (Homo sapiens) (UniProt P08588); details: Compound concentration 10.0 uM
[24] = (§3) Phosphodiesterase PDE6 Eurofins-Panlabs enzyme assay; set-up: species or system Bos taurus; substrate with concentration [3H] cGMP + cGMP, incubation time 20 min, incubation temperature 25 °C
Bos taurus [25] = species on record: Bos taurus; assay: as §3; set-up: substrate with concentration [3H] cGMP + cGMP, incubation time 20 min, incubation temperature 25 °C
[26] = molecular target: T1, 5-hydroxytryptamine receptor 3A (Homo sapiens) (UniProt P46098); assay: Inhibition of Serotonin (5-Hydroxytryptamine) 5-HT3 at 10 µM in the Eurofins-Panlabs radioligand binding assay (Eurofins_assay_271910); set-up: ligand concentration 0.69 nM; details: Compound concentration 10.0 uM
T1 sequence (whole entry): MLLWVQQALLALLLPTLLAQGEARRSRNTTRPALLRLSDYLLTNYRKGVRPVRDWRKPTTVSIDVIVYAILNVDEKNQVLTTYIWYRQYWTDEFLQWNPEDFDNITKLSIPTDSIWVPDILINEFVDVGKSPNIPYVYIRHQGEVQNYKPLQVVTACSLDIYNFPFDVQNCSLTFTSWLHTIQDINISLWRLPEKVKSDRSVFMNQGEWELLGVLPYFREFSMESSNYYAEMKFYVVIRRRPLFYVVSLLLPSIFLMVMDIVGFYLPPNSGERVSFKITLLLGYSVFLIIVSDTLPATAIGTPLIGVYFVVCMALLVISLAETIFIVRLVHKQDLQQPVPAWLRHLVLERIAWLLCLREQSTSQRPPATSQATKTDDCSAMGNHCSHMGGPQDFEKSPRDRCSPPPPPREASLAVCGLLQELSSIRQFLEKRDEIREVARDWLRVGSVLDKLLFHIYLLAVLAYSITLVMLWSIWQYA

[27] = molecular target: Somatostatin receptor type 3 (Homo sapiens) (UniProt P32745); assay: Somatostatin sst3 Eurofins-Panlabs radioligand binding assay; details: concentration not given here
Caspase-7 (Homo sapiens) = Caspase-7 (Homo sapiens) (UniProt P55210); assay: Peptidase, CASP7 (Caspase 7) Eurofins-Panlabs enzyme assay; details: Compound concentration 10.0 uM
[28] = molecular target: Melatonin receptor (Gallus gallus) (UniProt P49288+P51050+P49285); assay: Melatonin MT, Non-Selective Eurofins-Panlabs radioligand binding assay; assay type: protein assay; details: Compound concentration 10.0 uM
[29] = molecular target: Substance-K receptor (Homo sapiens) (UniProt P21452); assay: Inhibition of Tachykinin NK2 at 10 µM in the Eurofins-Panlabs radioligand binding assay (Eurofins_assay_255600); set-up: ligand concentration 0.5 nM; details: Compound concentration 10.0 uM
[30] = molecular target: 5-hydroxytryptamine receptor 4 (Homo sapiens) (UniProt Q13639); assay: Inhibition of Serotonin (5-Hydroxytryptamine) 5-HT4 at 10 µM in the Eurofins-Panlabs radioligand binding assay (Eurofins_assay_272000); details: Cavia porcellus; Compound concentration 10.0 uM
[31] = molecular target: cGMP-specific 3',5'-cyclic phosphodiesterase (Homo sapiens, UniProt O76074)
[32] = Compound concentration 100.0 uM

Epidermal growth factor receptor, sequence (P00533 whole entry): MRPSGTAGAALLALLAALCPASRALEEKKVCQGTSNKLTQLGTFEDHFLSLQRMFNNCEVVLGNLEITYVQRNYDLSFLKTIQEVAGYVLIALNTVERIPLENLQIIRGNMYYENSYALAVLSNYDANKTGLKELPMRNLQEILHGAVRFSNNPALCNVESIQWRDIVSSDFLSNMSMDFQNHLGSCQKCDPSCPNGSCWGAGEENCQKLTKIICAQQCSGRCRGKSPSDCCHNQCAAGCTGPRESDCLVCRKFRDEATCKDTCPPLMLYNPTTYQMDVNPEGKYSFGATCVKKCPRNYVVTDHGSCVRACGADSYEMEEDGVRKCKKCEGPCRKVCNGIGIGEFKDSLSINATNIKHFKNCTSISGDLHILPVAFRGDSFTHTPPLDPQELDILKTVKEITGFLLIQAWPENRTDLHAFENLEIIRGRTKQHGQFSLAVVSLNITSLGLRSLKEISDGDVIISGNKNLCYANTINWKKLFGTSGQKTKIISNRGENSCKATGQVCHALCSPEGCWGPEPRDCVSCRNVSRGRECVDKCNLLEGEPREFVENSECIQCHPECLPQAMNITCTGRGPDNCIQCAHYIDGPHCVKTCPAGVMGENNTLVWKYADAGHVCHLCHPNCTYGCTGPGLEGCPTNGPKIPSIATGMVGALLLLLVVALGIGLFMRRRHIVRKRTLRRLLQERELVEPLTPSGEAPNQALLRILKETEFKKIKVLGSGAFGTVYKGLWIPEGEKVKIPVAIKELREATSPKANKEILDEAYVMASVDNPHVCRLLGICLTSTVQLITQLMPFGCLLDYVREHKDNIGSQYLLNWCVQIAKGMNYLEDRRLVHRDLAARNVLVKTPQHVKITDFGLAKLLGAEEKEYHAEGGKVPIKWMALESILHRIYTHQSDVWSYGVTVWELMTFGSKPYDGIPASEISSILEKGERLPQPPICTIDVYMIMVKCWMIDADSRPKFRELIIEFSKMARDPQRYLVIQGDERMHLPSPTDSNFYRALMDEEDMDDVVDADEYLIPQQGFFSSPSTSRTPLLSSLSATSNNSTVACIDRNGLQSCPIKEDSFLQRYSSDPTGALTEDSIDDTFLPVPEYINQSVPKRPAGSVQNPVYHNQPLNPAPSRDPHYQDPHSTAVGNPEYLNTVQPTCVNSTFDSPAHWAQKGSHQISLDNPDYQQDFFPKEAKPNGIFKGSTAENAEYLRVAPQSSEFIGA

O=C(O)c1cc(-c2ccc(C3CCNCC3)cc2)c2ccc(-c3ccc(C(F)(F)F)cc3)cc2c1 [PPTN]
inhibition [1]: -2%
IC50 [2]: 4.59 µM
inhibition ([2]; Compound concentration 0.01 uM): -6%
inhibition ([2]; Compound concentration 0.1 uM): -3%
inhibition ([2]; Compound concentration 1.0 uM): 12%
inhibition ([2]; Compound concentration 10.0 uM): 74%
inhibition [3]: 29%
residual activity [4]: 82%
residual activity [5]: 71%
inhibition [6]: 4%
inhibition [7]: 11%
IC50 [8]: 2.31 µM
Ki [8]: 1.83 µM
inhibition [9]: -1%
inhibition [10]: -1%
IC50 [11]: 11.4 µM
inhibition (Bos taurus [12]; Compound concentration 0.1 uM): -10%
inhibition (Bos taurus [12]; Compound concentration 1.0 uM): 9%
inhibition (Bos taurus [12]; Compound concentration 10.0 uM): 46%
inhibition (Bos taurus [12]; [32]): 91%
inhibition [13]: -4%
inhibition (Homo sapiens): 0%
inhibition [14]: -1%
IC50 (Phosphodiesterase PDE1): 17.6 µM
inhibition ([15]; Compound concentration 0.1 uM): -8%
inhibition ([15]; Compound concentration 1.0 uM): -5%
inhibition ([15]; Compound concentration 10.0 uM): 51%
inhibition [15, 32]: 70%
inhibition [16]: 0%
inhibition (Rattus norvegicus [17]): -1%
inhibition ([18]; Compound concentration 0.1 uM): -1%
inhibition ([18]; Compound concentration 1.0 uM): 1%
inhibition ([18]; Compound concentration 10.0 uM): 63%
inhibition (Rattus norvegicus [19]): -4%
inhibition [20]: 3%
inhibition [21]: 31%
inhibition [22]: 12%
inhibition (Caspase-8 (Homo sapiens)): 7%
inhibition [23]: 3%
IC50 [24]: 32.9 µM
inhibition (Bos taurus [25]; Compound concentration 0.1 uM): 2%
inhibition (Bos taurus [25]; Compound concentration 1.0 uM): 4%
inhibition (Bos taurus [25]; Compound concentration 10.0 uM): 35%
inhibition (Bos taurus [25]; [32]): 66%
inhibition [26]: 8%
inhibition [27]: 35%
inhibition (Caspase-7 (Homo sapiens)): -6%
inhibition [28]: -7%
inhibition [29]: 26%
inhibition [30]: 11%
IC50 [31]: 38.2 µM
